Reference: the NIST ThermoML archive (doi:10.1021/je8002095)

Key:
[1] = for kinematic viscosity / mass density / speed of sound: 101.33 kPa, Liquid
[2] = molar heat capacity at constant pressure; details: 101.33 kPa, Liquid, differential scanning calorimeter
[3] = refractive index (Na D-line) (dimensionless); details: 101.33 kPa, Liquid

CCCCCCCC[n+]1cccc(C)c1.F[B-](F)(F)F [N-octyl-3-methylpyridinium tetrafluoroborate]
Details	kinematic viscosity, [1] [m2/s]	mass density, [1] [kg/m3]	molar heat capacity at constant pressure, [2] [J/K/mol]	refractive index, [3]	speed of sound, [1] [m/s]	surface tension liquid-gas, [1] [mN/m]
278.15 K	0.00248	1106.4	433.8	–	1571.9	39.82
280.65 K	0.00193	1105	435.7	–	1564.9	39.28
283.15 K	0.00154	1103.6	437.4	1.45978	1557.7	38.7
285.65 K	0.00123	1102.1	439.4	1.45907	1549.2	38.3
288.15 K	0.00102	1100.7	441.4	1.45835	1541.2	37.91
290.65 K	0.000817	1099.4	443.7	1.45764	1533.5	37.52
293.15 K	0.000681	1097.7	446.1	1.45691	1526.3	37.19
295.65 K	0.000558	1096.3	448.4	1.4562	1518.7	36.81
298.15 K	0.000462	1094.5	450.5	1.45547	1511.4	36.51
300.65 K	0.000388	1093.3	452.8	1.45477	1505.4	36.23
303.15 K	0.000327	1091.5	455	1.45405	1498.1	35.94
305.65 K	0.00028	1089.7	457.2	1.45333	1491.2	35.67
308.15 K	0.000238	1088.1	459.2	1.45261	1484.6	35.46
310.65 K	0.000205	1086.3	461.3	1.4519	1478.1	35.22
313.15 K	0.000177	1084.7	463.3	1.45121	1472.3	35.02
315.65 K	0.000156	1083.1	465.1	1.45047	1465.7	34.81
318.15 K	0.000136	1081.4	467	1.44976	1459.3	34.63
320.65 K	0.000119	1079.8	468.7	1.44903	1453.2	34.46
323.15 K	0.000105	1078.3	470.3	1.44831	1446.5	34.28
325.65 K	9.27e-05	1076.5	472	1.4476	1440.4	34.13
328.15 K	8.22e-05	1074.9	473.7	1.4469	1433.6	33.98
